Settings: Liquid, Transpiration method

NC=O [formamide]
Settings | vapor or sublimation pressure [kPa]
303.4 K | 0.0143
308.2 K | 0.0201
313.2 K | 0.0305
318.2 K | 0.0455
323.2 K | 0.0636
328.2 K | 0.0915
333.2 K | 0.1243
338.2 K | 0.1674
343.2 K | 0.2297
348.2 K | 0.3121
353.3 K | 0.4543
358.2 K | 0.5468
363.2 K | 0.7803
368.1 K | 0.9855
373.2 K | 1.271
376 K | 1.476

Reference: the NIST ThermoML archive (doi:10.1021/je200683f)
